# Measurements reported in ChEMBL document CHEMBL3526033, “Identification of human liver cytochrome P450 enzymes involved in the metabolism of SCH 530348 (Vorapaxar), a potent oral thrombin protease-activated receptor 1 antagonist” (Drug Metab Dispos, 2011).
# Legend:
# [1] = test system: Liver microsome; assay: Drug level in human liver microsomes treated with 10 to 25 uM vorapaxar after 120 mins by LC-MS/MS analysis in presence of alpha-napthoflavone; assay type: ADME; conditions: 2 h
# [2] = target: T1, Cytochrome P450 1A2 (Homo sapiens, UniProt P05177); assay: Activity of human recombinant CYP1A2 assessed as enzyme-mediated drug metabolism treated with 10 uM [14C]vorapaxar after 120 mins by LC-MS/MS analysis in presence of NADPH; assay type: ADME; conditions: 2 h
# T1 sequence (P05177 whole entry): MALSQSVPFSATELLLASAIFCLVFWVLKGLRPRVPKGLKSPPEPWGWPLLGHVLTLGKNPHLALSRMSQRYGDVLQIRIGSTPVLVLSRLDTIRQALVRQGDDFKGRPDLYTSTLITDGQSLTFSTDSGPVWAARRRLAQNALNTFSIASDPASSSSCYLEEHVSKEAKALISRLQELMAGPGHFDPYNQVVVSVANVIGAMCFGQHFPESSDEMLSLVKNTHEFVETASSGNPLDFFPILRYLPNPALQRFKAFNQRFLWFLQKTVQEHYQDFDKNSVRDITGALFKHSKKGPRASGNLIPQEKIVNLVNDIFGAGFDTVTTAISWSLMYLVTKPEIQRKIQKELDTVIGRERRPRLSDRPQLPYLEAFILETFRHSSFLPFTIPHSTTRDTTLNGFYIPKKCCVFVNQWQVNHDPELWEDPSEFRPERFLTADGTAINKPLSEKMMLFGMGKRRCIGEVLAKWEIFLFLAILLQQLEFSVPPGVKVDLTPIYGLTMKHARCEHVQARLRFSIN
# [3] = test system: Liver microsome; assay: Drug level in human liver microsomes treated with 10 to 25 uM vorapaxar after 120 mins by LC-MS/MS analysis in presence of sulfaphenazole; assay type: ADME; conditions: 2 h
# [4] = target: T2, Cytochrome P450 2C19 (Homo sapiens, UniProt P33261); assay: Drug level assessed as human recombinant CYP2C19-mediated drug metabolism treated with 25 uM [14C]vorapaxar after 120 mins by LC-MS/MS analysis in presence of NADPH; assay type: ADME; conditions: recombinant enzyme, 2 h
# [5] = test system: Liver microsome; assay: Drug level in human liver microsomes treated with 10 to 25 uM vorapaxar after 120 mins by LC-MS/MS analysis in presence of CYP3A4-specific inhibitory antibody; assay type: ADME; conditions: 2 h
# [6] = target: T3, Cytochrome P450 1A1 (Homo sapiens, UniProt P04798); assay: Drug level assessed as human recombinant CYP1A1-mediated drug metabolism treated with 25 uM [14C]vorapaxar after 120 mins by LC-MS/MS analysis in presence of NADPH; assay type: ADME; conditions: recombinant enzyme, 2 h
# T3 sequence (P04798 whole entry): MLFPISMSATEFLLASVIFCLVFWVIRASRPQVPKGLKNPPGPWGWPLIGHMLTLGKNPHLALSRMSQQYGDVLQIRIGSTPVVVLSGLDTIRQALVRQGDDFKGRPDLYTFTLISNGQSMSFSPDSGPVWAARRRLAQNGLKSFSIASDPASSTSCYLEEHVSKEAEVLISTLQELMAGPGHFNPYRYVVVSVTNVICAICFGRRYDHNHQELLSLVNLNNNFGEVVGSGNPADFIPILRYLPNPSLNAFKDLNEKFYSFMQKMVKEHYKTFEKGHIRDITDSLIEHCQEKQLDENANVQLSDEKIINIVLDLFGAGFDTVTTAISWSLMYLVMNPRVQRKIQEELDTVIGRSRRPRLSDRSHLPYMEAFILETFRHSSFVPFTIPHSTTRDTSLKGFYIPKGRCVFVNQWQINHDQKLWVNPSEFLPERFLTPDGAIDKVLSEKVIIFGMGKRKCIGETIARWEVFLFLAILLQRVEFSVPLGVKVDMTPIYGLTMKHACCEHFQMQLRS
# [7] = target: Cytochrome P450 2C9 (Homo sapiens, UniProt P11712); assay: Activity of human recombinant CYP2C9 assessed as enzyme-mediated drug metabolism treated with 10 uM [14C]vorapaxar after 120 mins by LC-MS/MS analysis in presence of NADPH; assay type: ADME; conditions: 2 h
# [8] = target: T4, Cytochrome P450 4F3 (Homo sapiens, UniProt Q08477); assay: Drug level assessed as human recombinant CYP4F3A-mediated drug metabolism treated with 25 uM [14C]vorapaxar after 120 mins by LC-MS/MS analysis in presence of NADPH; assay type: ADME; conditions: recombinant enzyme, 2 h
# T4 sequence (Q08477 whole entry): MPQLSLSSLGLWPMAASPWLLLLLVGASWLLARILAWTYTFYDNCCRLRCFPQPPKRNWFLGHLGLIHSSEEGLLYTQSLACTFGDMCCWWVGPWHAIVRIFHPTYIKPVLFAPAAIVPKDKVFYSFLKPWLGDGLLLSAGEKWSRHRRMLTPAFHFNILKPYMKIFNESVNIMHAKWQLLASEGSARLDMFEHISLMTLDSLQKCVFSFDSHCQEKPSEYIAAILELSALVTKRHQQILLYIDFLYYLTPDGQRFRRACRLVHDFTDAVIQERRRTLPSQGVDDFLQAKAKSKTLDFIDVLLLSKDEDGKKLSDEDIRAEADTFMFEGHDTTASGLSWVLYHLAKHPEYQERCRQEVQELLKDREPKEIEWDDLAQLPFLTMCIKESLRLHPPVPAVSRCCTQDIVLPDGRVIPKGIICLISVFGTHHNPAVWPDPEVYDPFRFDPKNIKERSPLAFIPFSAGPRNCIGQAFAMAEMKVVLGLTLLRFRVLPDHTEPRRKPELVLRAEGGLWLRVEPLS
# [9] = target: T5, Cytochrome P450 3A5 (Homo sapiens, UniProt P20815); assay: Activity of human recombinant CYP3A5 assessed as enzyme-mediated drug metabolism treated with 10 uM [14C]vorapaxar after 120 mins by LC-MS/MS analysis in presence of NADPH; assay type: ADME; conditions: 2 h
# [10] = target: T3, Cytochrome P450 1A1; assay: Activity of human recombinant CYP1A1 assessed as enzyme-mediated drug metabolism treated with 10 uM [14C]vorapaxar after 120 mins by LC-MS/MS analysis in presence of NADPH; assay type: ADME; conditions: 2 h
# [11] = test system: Liver microsome; assay: Drug metabolism in human liver microsomes treated with 10 uM [14C]vorapaxar after 120 mins by LC-MS/MS analysis; assay type: ADME; conditions: 2 h
# [12] = target: T1, Cytochrome P450 1A2; assay: Drug level assessed as human recombinant CYP1A2-mediated drug metabolism treated with 25 uM [14C]vorapaxar after 120 mins by LC-MS/MS analysis in presence of NADPH; assay type: ADME; conditions: recombinant enzyme, 2 h
# [13] = target: T5, Cytochrome P450 3A5; assay: Drug level assessed as human recombinant CYP3A5-mediated drug metabolism treated with 25 uM [14C]vorapaxar after 120 mins by LC-MS/MS analysis in presence of NADPH; assay type: ADME; conditions: recombinant enzyme, 2 h
# [14] = test system: Liver microsome; assay: Drug level in human liver microsomes treated with 10 to 25 uM vorapaxar after 120 mins by LC-MS/MS analysis in presence of omeprazole; assay type: ADME; conditions: 2 h
# [15] = target: T6, Cytochrome P450 2J2 (Homo sapiens, UniProt P51589); assay: Drug level in human liver microsomes assessed as CYP2J2-mediated drug metabolism at 25 uM after 120 mins by LC-MS/MS analysis; assay type: ADME; conditions: 2 h
# T6 sequence (P51589 whole entry): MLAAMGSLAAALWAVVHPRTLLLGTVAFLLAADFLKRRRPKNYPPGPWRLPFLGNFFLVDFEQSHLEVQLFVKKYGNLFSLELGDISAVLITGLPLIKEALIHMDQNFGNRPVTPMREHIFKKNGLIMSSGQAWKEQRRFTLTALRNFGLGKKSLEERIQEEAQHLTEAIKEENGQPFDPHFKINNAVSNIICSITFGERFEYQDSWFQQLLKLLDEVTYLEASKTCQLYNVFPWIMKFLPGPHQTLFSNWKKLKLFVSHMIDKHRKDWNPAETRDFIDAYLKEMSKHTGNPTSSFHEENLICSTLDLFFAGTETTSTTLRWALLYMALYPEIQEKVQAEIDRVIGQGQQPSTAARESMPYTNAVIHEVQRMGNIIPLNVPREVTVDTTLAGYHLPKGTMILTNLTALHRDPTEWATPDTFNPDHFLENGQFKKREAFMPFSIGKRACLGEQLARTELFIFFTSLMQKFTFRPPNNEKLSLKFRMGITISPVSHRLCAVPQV
# [16] = Drug metabolism in human liver S9 fraction treated with 10 uM [14C]vorapaxar after 120 mins by LC-MS/MS analysis; assay type: ADME, subcellular; conditions: s9, 2 h
# [17] = target: T7, Cytochrome P450 3A4 (Homo sapiens, UniProt P08684); assay: Drug level in human liver microsomes assessed as CYP3A4-mediated drug metabolism at 25 uM after 120 mins by LC-MS/MS analysis; assay type: ADME; conditions: 2 h
# [18] = target: T7, Cytochrome P450 3A4; assay: Activity of human recombinant CYP3A4 assessed as enzyme-mediated drug metabolism treated with 10 uM [14C]vorapaxar after 120 mins by LC-MS/MS analysis in presence of NADPH; assay type: ADME; conditions: 2 h
# [19] = target: T2, Cytochrome P450 2C19; assay: Activity of human recombinant CYP2C19 assessed as enzyme-mediated drug metabolism treated with 10 uM [14C]vorapaxar after 120 mins by LC-MS/MS analysis in presence of NADPH; assay type: ADME; conditions: 2 h
# [20] = test system: Liver microsome; assay: Drug level in human liver microsomes treated with 10 to 25 uM vorapaxar after 120 mins by LC-MS/MS analysis in presence of quinidine; assay type: ADME; conditions: 2 h
# T5 sequence (P20815 whole entry): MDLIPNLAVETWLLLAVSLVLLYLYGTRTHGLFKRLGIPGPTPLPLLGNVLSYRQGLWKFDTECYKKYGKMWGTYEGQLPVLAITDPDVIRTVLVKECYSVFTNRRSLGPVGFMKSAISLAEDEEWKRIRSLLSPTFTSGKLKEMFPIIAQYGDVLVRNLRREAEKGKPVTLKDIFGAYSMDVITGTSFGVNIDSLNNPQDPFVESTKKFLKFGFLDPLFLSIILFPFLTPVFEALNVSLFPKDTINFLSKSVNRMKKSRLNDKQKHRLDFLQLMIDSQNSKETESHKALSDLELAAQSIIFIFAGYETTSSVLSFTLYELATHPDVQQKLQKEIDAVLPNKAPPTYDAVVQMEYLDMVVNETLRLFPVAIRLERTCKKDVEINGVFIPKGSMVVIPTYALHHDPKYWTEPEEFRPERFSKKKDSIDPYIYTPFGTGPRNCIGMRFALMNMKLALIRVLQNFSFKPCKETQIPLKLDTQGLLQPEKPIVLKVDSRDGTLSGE
# T7 sequence (P08684 whole entry): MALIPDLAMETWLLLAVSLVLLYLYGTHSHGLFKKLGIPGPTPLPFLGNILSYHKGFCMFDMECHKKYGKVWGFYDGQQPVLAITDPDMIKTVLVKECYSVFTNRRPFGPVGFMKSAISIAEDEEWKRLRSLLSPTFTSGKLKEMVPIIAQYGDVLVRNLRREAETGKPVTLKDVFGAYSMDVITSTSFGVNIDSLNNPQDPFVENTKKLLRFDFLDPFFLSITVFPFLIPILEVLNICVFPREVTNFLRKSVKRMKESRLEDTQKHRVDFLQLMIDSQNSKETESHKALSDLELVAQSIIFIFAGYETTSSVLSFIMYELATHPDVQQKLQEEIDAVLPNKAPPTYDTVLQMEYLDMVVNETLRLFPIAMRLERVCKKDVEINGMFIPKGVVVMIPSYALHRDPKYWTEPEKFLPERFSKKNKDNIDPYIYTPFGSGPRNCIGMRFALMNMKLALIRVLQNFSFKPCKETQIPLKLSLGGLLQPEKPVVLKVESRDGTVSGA
# T2 sequence (P33261 whole entry): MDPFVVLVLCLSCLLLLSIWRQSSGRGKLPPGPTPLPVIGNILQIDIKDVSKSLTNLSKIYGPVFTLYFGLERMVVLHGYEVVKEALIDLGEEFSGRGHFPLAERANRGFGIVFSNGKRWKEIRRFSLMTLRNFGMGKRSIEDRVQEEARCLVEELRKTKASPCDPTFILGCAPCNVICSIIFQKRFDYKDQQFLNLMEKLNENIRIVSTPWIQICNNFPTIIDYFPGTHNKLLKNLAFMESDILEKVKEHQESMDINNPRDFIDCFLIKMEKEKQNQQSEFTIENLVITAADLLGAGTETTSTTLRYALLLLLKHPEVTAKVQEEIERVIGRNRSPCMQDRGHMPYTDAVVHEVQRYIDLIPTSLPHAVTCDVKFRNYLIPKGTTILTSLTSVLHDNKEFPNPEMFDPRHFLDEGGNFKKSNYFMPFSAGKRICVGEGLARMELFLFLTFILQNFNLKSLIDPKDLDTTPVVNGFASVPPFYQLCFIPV
# Chain of Cytochrome P450 2C9 (P11712 whole entry): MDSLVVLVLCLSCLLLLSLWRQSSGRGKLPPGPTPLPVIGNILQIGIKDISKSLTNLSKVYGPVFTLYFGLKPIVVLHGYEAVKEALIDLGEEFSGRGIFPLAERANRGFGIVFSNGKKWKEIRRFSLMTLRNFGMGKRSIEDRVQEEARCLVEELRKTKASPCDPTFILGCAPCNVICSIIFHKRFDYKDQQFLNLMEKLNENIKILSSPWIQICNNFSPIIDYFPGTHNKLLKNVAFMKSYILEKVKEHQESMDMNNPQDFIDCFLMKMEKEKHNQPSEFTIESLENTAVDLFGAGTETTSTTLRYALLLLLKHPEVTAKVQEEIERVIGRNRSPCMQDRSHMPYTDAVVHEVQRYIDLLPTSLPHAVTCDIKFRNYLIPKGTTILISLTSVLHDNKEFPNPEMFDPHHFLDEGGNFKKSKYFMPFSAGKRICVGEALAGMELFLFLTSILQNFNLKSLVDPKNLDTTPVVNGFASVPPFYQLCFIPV
compound,measurement,setting,value
C[C@H]1OC(=O)[C@@H]2C[C@@H]3C[C@H](N)CC[C@H]3[C@H](/C=C/c3ccc(-c4cccc(F)c4)cn3)[C@H]12,Drug metabolism,[1],metabolite_detected
same,Compound recovery,[2],0.23%
same,Drug metabolism,[3],metabolite_detected
same,Drug metabolism,[4],metabolite_detected
same,Drug metabolism,[5],metabolite_detected
same,Drug metabolism,[6],metabolite_detected
same,Compound recovery,[7],below level of quantification
same,Drug metabolism,[8],metabolite_detected
same,Compound recovery,[9],0.15%
same,Compound recovery,[10],1.96%
same,Compound recovery,[11],5.12%
same,Drug metabolism,[12],metabolite_detected
same,Drug metabolism,[13],metabolite_detected
same,Drug metabolism,[14],metabolite_detected
same,Drug metabolism,[15],metabolite_detected
same,Compound recovery,[16],3.42%
same,Drug metabolism,[17],metabolite_detected
same,Compound recovery,[18],22.1%
same,Compound recovery,[19],5.91%
same,Drug metabolism,[20],metabolite_detected
